Here are results for 38 compounds from patent US6972299B2, “Phenylethynyl and styryl derivatives of imidazole and fused ring heterocycles” (Hoffmann-La Roche Inc., priority 2000, dated 2005).

Some results are limits rather than exact numbers.

The target of one data set is T1, rat mGlu 5a receptor (Rattus norvegicus, UniProt P31424).
T1 construct: expressed in transfected cells; host or cells: EBNA cells (transient transfection)
T1 sequence (P31424 21-1171 isoform P31424-2 limits assumed): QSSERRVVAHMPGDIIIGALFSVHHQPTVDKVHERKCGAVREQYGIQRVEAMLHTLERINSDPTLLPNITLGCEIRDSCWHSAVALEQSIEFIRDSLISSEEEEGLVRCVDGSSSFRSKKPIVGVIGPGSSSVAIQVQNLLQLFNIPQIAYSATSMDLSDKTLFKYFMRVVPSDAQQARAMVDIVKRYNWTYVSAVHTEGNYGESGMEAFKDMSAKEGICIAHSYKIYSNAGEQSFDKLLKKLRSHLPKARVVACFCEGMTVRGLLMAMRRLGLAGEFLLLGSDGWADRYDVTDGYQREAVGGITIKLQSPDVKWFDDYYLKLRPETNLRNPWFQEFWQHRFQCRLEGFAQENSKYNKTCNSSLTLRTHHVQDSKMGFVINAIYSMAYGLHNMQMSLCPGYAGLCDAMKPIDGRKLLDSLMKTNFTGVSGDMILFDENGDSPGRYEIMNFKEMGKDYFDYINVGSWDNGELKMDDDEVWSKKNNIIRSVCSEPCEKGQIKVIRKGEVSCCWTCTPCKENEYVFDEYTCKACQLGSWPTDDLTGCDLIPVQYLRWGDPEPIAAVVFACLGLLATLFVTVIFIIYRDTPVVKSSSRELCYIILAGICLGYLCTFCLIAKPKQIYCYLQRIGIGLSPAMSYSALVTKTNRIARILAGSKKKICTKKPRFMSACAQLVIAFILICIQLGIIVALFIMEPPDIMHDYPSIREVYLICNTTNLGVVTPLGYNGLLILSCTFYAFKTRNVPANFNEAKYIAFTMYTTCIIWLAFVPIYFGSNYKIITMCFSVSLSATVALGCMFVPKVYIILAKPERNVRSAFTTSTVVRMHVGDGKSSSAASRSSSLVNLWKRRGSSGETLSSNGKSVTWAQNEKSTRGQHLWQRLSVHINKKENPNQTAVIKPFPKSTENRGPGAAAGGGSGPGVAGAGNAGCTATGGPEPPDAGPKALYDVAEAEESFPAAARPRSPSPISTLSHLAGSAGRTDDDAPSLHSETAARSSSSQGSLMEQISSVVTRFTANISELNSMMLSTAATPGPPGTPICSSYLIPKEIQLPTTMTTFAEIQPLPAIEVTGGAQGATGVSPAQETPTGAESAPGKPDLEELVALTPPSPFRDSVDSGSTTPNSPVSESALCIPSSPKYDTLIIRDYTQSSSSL
The data set is described as follows: [Ca2+]i measurement (FLIPR) on mGlu 5a transfected EBNA cells, antagonist mode. It counts as cell-based. The settings on record: rat mGlu 5a transiently transfected EBNA cells, Fluo 3-AM, tested against 10 μM glutamate as agonist. How it is done: The pharmacological activity of all of the example compounds was tested using the following method: • cDNA encoding rat mGlu 5a receptor was transiently transfected into EBNA cells using a procedure described by E.-J. Schlaeger and K. Christensen (Transient gene expression in mammalian cells grown in serum-free suspension culture; Cytotechnology, 30: 71-83,1999). [Ca^2+]i measurements were performed on mGlu 5a transfected EBNA cells after incubation of the cells with Fluo 3-AM (obtainable by FLUKA, 0.5 μM final concentration) for 1 hour at 37° C. followed by 4 washes with assay buffer (DMEM supplemented with Hank's salt and 20 mM HEPES. [Ca^2+]i measurements were done using a fluorometric imaging plate reader (FLIPR, Molecular Devices Corporation, La Jolla, Calif., USA). When compounds were evaluated as antagonists they were tested against 10 μM glutamate as agonist.
The inhibition (antagonists) curves were fitted with a four parameter logistic equation giving IC50, and Hill coefficient using the iterative non linear curve fitting software Origin (Microcal Software Inc., Northampton, Mass., USA).
For orientation: IC50 means the concentration that inhibits the measured activity by half. High values mean weaker potency in that assay, low ones greater potency in that assay. On to `CCOC(=O)c1c(C)nc(C#Cc2ccccc2)n1C` [Example 1, 3,5-Dimethyl-2-phenylethynyl-3H-imidazole-4-carboxylic acid ethyl ester], for which the half-inhibitory concentration (IC50) amounted to 250 nM.
On to `CCOC(=O)c1[nH]c(C#Cc2ccccc2)nc1C` [Example 2, 5-Methyl-2-phenylethynyl-3H-imidazole-4-carboxylic acid ethyl ester], for which the IC50 was 2400 nM.
In turn, `CCOC(=O)c1c(C)nc(C#Cc2cccc(OC)c2)n1C` [Example 3, 2-(3-Methoxy-phenylethynyl)-3,5-dimethyl-3H-imidazole-4-carboxylic acid ethyl ester] had an IC50 of 350 nM.
Same read-out and setting: the value for `Cn1ccnc1C#Cc1ccccc1` [Example 4, 1-Methyl-2-phenylethynyl-1H-imidazole] was 720 nM; that for `O=[N+]([O-])c1cnc(C#Cc2ccccc2)n1CCO` [Example 5, 2-(5-Nitro-2-phenylethynyl-imidazol-1-yl)-ethanol] was 2110 nM; that for `C(#Cc1ncc[nH]1)c1ccccc1` [Example 6, 2-Phenylethynyl-1H-imidazole] was 200 nM.
As for `CCOC(=O)c1nc(C#Cc2ccccc2)n(-c2ccccc2)c1C` [Example 8, 5-Methyl-1-phenyl-2-phenylethynyl-1H-imidazole-4-carboxylic acid ethyl ester], the 50% inhibitory concentration (IC50) is under 10000 nM.
The same measure, in the same setting: the value for `CCOC(=O)c1c(C)nc(C#Cc2cccc(C)c2)n1C` [Example 9, 3,5-dimethyl-2-m-tolylethynyl-3H-imidazole-4-carboxylic acid ethyl ester] was 130 nM.
Take `CCOC(=O)c1c(C)nc(C#Cc2cccc(NC(C)=O)c2)n1C` [Example 10, 2-(3-Acetylamino-phenylethynyl)-3,5-dimethyl-3H-imidazole-4-carboxylic acid ethyl ester]: the concentration for half-maximal inhibition (IC50) turned out to be 2120 nM.
`CCOC(=O)c1c(C)nc(C#Cc2cccc(-n3c(C)ccc3C)c2)n1C` [Example 11]: the half-maximal inhibitory concentration (IC50) was found to be 180 nM.
Still for that read-out and setting: for `Cc1noc(-c2c(C)nc(C#Cc3ccccc3)n2C)n1` [Example 12, 5-(3,5-Dimethyl-2-phenylethynyl-3H-imidazol-4-yl)-3-methyl-[1,2,4]oxadiazole] the value was 11 nM; for `CCOC(=O)c1c(C)nc(C#Cc2ccc(Cl)cc2)n1C` [Example 14, 2-(4-Chloro-phenylethynyl)-3,5-dimethyl-3H-imidazole-4-carboxylic acid ethyl ester], under 10000 nM; for `CCOC(=O)c1c(C)nc(C#Cc2ccc(F)cc2)n1C` [Example 15, 2-(4-Fluoro-phenylethynyl)-3,5-dimethyl-3H-imidazole-4-carboxylic acid ethyl ester], 250 nM.
On the same count and under the same terms, for `CCOC(=O)c1c(C)nc(C#Cc2ccc(-c3ccccc3)cc2)n1C` [Example 16, 2-Biphenyl-4-ylethynyl-3,5-dimethyl-3H-imidazole-4-carboxylic acid ethyl ester] the value was 210 nM.
Same read-out and setting: the value for `CCOC(=O)c1c(C)nc(C#Cc2ccccc2F)n1C` [Example 17, 2-(2-Fluoro-phenylethynyl)-3,5-dimethyl-3H-imidazole-4-carboxylic acid ethyl ester] was 90 nM; that for `Cn1ccnc1C#Cc1ccccc1F` [Example 18, 2-(2-Fluoro-phenylethynyl)-1-methyl-1H-imidazole] was 70 nM; that for `CCOC(=O)c1c(C)nc(C#Cc2ccc(N)cc2)n1C` [Example 19, 2-(4-Amino-phenylethynyl)-3,5-dimethyl-3H-imidazole-4-carboxylic acid ethyl ester] was 1530 nM.
On to `Cn1ccnc1C#Cc1ccccc1Cl` [Example 20, 2-(2-Chloro-phenylethynyl)-1-methyl-1H-imidazole], for which the 50% inhibitory concentration (IC50) was determined as 1100 nM.
`CCOC(=O)Cn1c(C#Cc2ccccc2)nc(Cl)c1Cl` [Example 21, (4,5-Dichloro-2-phenylethynyl-imidazol-1-yl)-acetic acid ethyl ester] showed a half-inhibitory concentration (IC50) of 520 nM.
The same measure, in the same setting: the value for `Cn1cncc1C#Cc1ccccc1` [Example 22, 1-Methyl-5-phenylethynyl-1H-imidazole] was 220 nM; that for `COc1ccc2[nH]c(C#Cc3ccccc3)c(CCNC(C)=O)c2c1` [Example 23, N-[2-(5-Methoxy-2-phenylethynyl-1H-indol-3-yl)-ethyl]-acetamide] was 580 nM; that for `C(#Cc1ncn2c1CSc1ncccc1-2)c1ccccc1` [Example 24, 3-Phenylethynyl-4H-5-thia-2,6,9b-triaza-cyclopenta[a]naphthalene] was 150 nM.
On the same count and under the same terms, the value for `Cc1nc(C#Cc2ccccc2)c([N+](=O)[O-])n1CC(O)CCl` (stereo not drawn) [Example 26, 1-Chloro-3-(2-methyl-5-nitro-4-phenylethynyl-imidazol-1-yl)-propan-2-ol] was 230 nM.
Still for that read-out and setting: the value for `Cn1cnc(C#Cc2ccccc2)c1C=O` [Example 27, 3-Methyl-5-phenylethynyl-3H-imidazole-4-carbaldehyde] was 1790 nM; that for `C(#Cc1c[nH]cn1)c1ccccc1` [Example 28, 4-Phenylethynyl-1H-imidazole] was 3360 nM; that for `Cn1cnc(C#Cc2ccccc2)c1` [Example 29, 1-Methyl-4-phenylethynyl-1H-imidazole] was 500 nM.
Consider `Cc1nc(C#Cc2ccccc2)c([N+](=O)[O-])n1C` [Example 30, 1,2-Dimethyl-5-nitro-4-phenylethynyl-1H-imidazole], for which the IC50 is 20 nM.
In turn, `Cc1cc(C#Cc2ccccc2)n(C)n1` [Example 31, 1,3-Dimethyl-5-phenylethynyl-1H-pyrazole] came in with an IC50 of 5000 to 10000 nM.
Same read-out and setting: the value for `CC(C)c1nc(C=Cc2ccccc2)n(C)c1C(C)C` [Example 32, 4,5-Diisopropyl-1-methyl-2-styryl-1H-imidazole] was 1820 nM.
`CC(C)c1nc(C=Cc2ccc(F)cc2)n(C)c1C(C)C` [Example 33, 2-[2-(4-Fluoro-phenyl)-vinyl]-4,5-diisopropyl-1-methyl-1H-imidazole]: the IC50 fell in the range of 5000 to 10000 nM.
`CC(C)c1nc(C=Cc2ccc(Cl)cc2)n(C)c1C(C)C` [Example 34, 2-[2-(4-Chloro-phenyl)-vinyl]-4,5-diisopropyl-1-methyl-1H-imidazole] showed an IC50 of 5000 to 10000 nM.
On the same count and under the same terms, for `CCCCOc1ccc(C=Cc2nc(C(C)C)c(C(C)C)n2C)cc1` [Example 35, 2-[2-(4-Butoxy-phenyl)-vinyl]-4,5-diisopropyl-1-methyl-1H-imidazole] the value was 5000 to 10000 nM; for `COc1cc(C)c(C=Cc2nc(C(C)C)c(C(C)C)n2C)c(C)c1C` [Example 36, 4,5-Diisopropyl-2-[2-(4-methoxy-2,3,6-trimethyl-phenyl)-vinyl]-1-methyl-1H-imidazole], 5000 to 10000 nM.
The same measure, in the same setting: the value for `COc1ccc(C=Cc2nc(C(C)C)c(C(C)C)n2C)cc1` [Example 37, 4,5-diisopropyl-2-[2-(4-methoxy-phenyl)-vinyl]-1-methyl-1H-imidazole] was 5000 to 10000 nM; that for `Cc1ccc(C=Cc2nc(C(C)C)c(C(C)C)n2C)cc1` [Example 42, 4,5-Diisopropyl-1-methyl-2-(2-p-tolyl-vinyl)-1H-imidazole] was 3250 nM.
The same measure, in the same setting: the value for `Cn1cnc(Br)c1C=Cc1ccccc1` [Example 43, 4-Bromo-1-methyl-5-styryl-1H-imidazole] was 3060 nM; that for `Cn1cncc1C=Cc1ccccc1` [Example 44, 1-Methyl-5-styryl-1H-imidazole] was 8000 nM.

System in another data set: not given
Experiment: not given
Conditions: not given
As a reminder, the melting point is the temperature of the solid-liquid transition. With `Cc1noc(-c2c(C)nc(C#Cc3ccccc3)n2C)n1` [Example 12, 5-(3,5-Dimethyl-2-phenylethynyl-3H-imidazol-4-yl)-3-methyl-[1,2,4]oxadiazole], the melting point was determined as 137 °C.
With `Cc1nc(C#Cc2ccccc2)n(C)c1-c1nc(C2CC2)no1` [Example 13, 3-Cyclopropyl-5-(3,5-dimethyl-2-phenylethynyl-3H-imidazol-4-yl)-[1,2,4]oxadiazole], the melting point was 120 °C.
